# Source: US8093394B2, “Derivatives of 5-thioxylopyranose and use of same for treatment” (Laboratoires Fournier S.A., priority 2006, dated 2012)
# System: venous thrombosis
# Assay: venous thrombosis test in rats, activity via the oral route (venous stasis under hypercoagulation with factor Xa, Wessler technique)
# Format: in vivo
# Conditions: dose 6 mg/kg, thrombosis induced 2 h after administration, male Wistar rats
# Protocol: The antithrombotic activity of the compounds according to the invention was studied in vivo in rats by virtue of a test in which a venous thrombosis is reproduced. The venous thrombosis was induced according to the protocol described in Thromb. Haemost., 1992, 67(1), 176-179. The activity via the oral route was studied according to the procedure described below. The experiment is carried out on non-fasting male Wistar rats weighing from 250 to 280 g and divided into groups of 10 animals each. The test products are administered orally (intubation) in solution or in suspension in a 0.5% solution of methylcellulose in water. The concentrations of the compounds are calculated so as to bring about the absorption of an amount of solution of 10 ml/kg orally. A thrombosis is induced at a time T after the administration of the product and the thrombus formed is removed and weighed. In order to induce this thrombosis, a venous stasis is brought about under hypercoagulation, according to the technique described by Wessler (J. Applied Physiol., 1959, 943-946), using a solution of activated factor X (Xa), supplied by Biogenic (Montpellier) and comprising a dose of 7.5 nKat/kg, as hypercoagulant. The venous stasis is brought about 10 seconds exactly after the injection of the hypercoagulant. The activity of the test compounds is monitored at various doses, after they have been administered. The thrombosis is induced 2 hours after the administration of the compound. By way of example, the results of the above tests are given in the following table for a few compounds according to the invention (the activity is expressed by the percentage of inhibition of the formation of the thrombus, observed in the presence of the compound according to the invention, with respect to the weight of the thrombus formed in the absence of the compound).
row,SMILES,"Activity (percentage of inhibition of the formation of the thrombus, with respect to the weight of the thrombus formed in the absence of the compound) [%]"
1,"O[C@@H]1[C@@H](O)[C@H](Oc2ccc(-c3ccncc3)nc2F)SC[C@H]1O [Example 22, 2-Fluoro-6-(4-pyridinyl)-3-pyridinyl 5-thio-β-D-xylopyranoside]",100
2,"O[C@@H]1[C@@H](O)[C@H](Oc2ccc(-c3ccncc3)nc2Cl)SC[C@H]1O [Example 24, 2-Chloro-6-(4-pyridinyl)-3-pyridinyl 5-thio-β-D-xylopyranoside]",96
3,"O[C@@H]1[C@@H](O)[C@H](Oc2cncc(-c3ccc(Cl)nc3)c2)SC[C@H]1O [Example 30, 5-(6-Chloro-3-pyridinyl)-3-pyridinyl 5-thio-β-D-xylopyranoside]",97
4,"O[C@@H]1[C@@H](O)[C@H](Oc2ccc(-c3cccnc3Cl)nc2)SC[C@H]1O [Example 40, 6-(2-Chloro-3-pyridinyl)-3-pyridinyl 5-thio-β-D-xylopyranoside]",96
5,"O[C@@H]1[C@@H](O)[C@H](Oc2ccc(-c3cccs3)nc2)SC[C@H]1O [Example 108, 6-(2-Thienyl)-3-pyridinyl 5-thio-β-D-xylopyranoside]",95
6,"O[C@@H]1[C@@H](O)[C@H](Oc2ccc(-c3ccncc3)nc2)SC[C@H]1O [Example 122, 6-(4-Pyridinyl)-3-pyridinyl 5-thio-β-D-xylopyranoside]",93
7,"O[C@@H]1[C@@H](O)[C@H](Oc2ccnc(-c3ccncc3)c2)SC[C@H]1O [Example 130, 2-(4-Pyridinyl)-4-pyridinyl 5-thio-β-D-xylopyranoside]",91
8,"Cc1oncc1-c1ccc(O[C@@H]2SC[C@@H](O)[C@H](O)[C@H]2O)cn1 [Example 140, 6-(5-Methyl-4-isoxazolyl)-3-pyridinyl 5-thio-β-D-xylopyranoside]",96
9,"Cc1cncc(-c2ccc(O[C@@H]3SC[C@@H](O)[C@H](O)[C@H]3O)cn2)c1 [Example 142, 6-(5-Methyl-3-pyridinyl)-3-pyridinyl 5-thio-β-D-xylopyranoside]",97
10,"Cn1cc(-c2ncc(O[C@@H]3SC[C@@H](O)[C@H](O)[C@H]3O)cc2F)cn1 [Example 224, 5-Fluoro-6-(1-methyl-1H-pyrazol-4-yl)-3-pyridinyl 5-thio-β-D-xylopyranoside]",99
11,"Cc1noc(C)c1-c1ncc(O[C@@H]2SC[C@@H](O)[C@H](O)[C@H]2O)cc1F [Example 226, 6-(3,5-Dimethyl-4-isoxazolyl)-5-fluoro-3-pyridinyl 5-thio-β-D-xylopyranoside]",97
